Experiments:
[1] = test system: hypercholesterolemic hamsters; assay: In vivo lipid lowering of (14R,13S)-CRDL in hamsters on high cholesterol diet; design: species or system Golden Syrian male hamsters; conditions: 10 mg/kg daily i.p., 17 days
Procedure: In another experiment, 18 Golden Syrian male hamsters under a high cholesterol (HC) diet were divided into two treatment groups of i.p. One group was treated with (14R,13S)-CRDL at a daily dose of 10 mg/kg and the control group received equal amount of vehicle.
The HC diet markedly damaged the liver function of the hamsters, which was evident by elevated alanine aminotransaminase (ALT) and aspartate aminotransaminase (AST) in blood. (14R,13S)-CRDL treatment ameliorated the liver function under the HC diet and lowered the serum level of ALT by 60% and lowered the serum level of AST by 30% compared to control (FIG. 10B).

[2] = test system: LDLR mRNA expression in HepG2 cells; assay: LDLR mRNA expression in HepG2 cells, semi-quantitative RT-PCR; type: cell-based, Human; conditions: 8 hours, indicated doses, corrected by GAPDH mRNA (FIG. 3)
Procedure: HepG2 cells obtained from American Tissue Culture Collection (Manassas, Va., USA) were seeded in 6-well culture plates at a density of 0.8×10^6 cells/well cultured in EMEM containing 0.5% FBS and were treated with each purified compound at indicated doses for 8 hours. Total RNA was isolated, and 2 μg per sample was reverse transcribed with random primers using M-MLV (Promega) at 37° C. for 1 hour. PCR was carried out at 94° C. for 30 sec, 60° C. for 30 sec, and 72° C. for 30 sec with initial activation of the enzyme at 94° C. for 1 minute. Thirty cycles were performed for LDLR and GAPDH. PCR was performed using primers HLDLR-up and HLDLR-lo for LDLR and primers HGAPDH-up and HGAPDH-lo for GAPDH. The PCR products were separated on a 1% agarose gel and the band intensity was quantitated. LDLR mRNA levels were corrected by measuring GAPDH mRNA levels.
After the treatment, a portion of cells was harvested for total RNA, and another portion of cells was used for TG measurement. The LDLR mRNA levels were assessed by semi quantitative RT-PCR, and the cellular TG content was determined as described above.

[3] = test system: LDLR ligand uptake activity in HepG2 cells; assay: DiI-LDL uptake (LDLR ligand uptake activity) in HepG2 cells; type: cell-based, Human; conditions: 20 hours, B, compound dose ≦ 40 μM; note: key: +: slightly increased fluorescent intensity over control; ++: modestly increased fluorescent intensity over control; +++: strongly increased fluorescent intensity over control
Procedure: HepG2 cells (2×10^5 cells/well) in 24-well culture plates were treated with various compounds at indicated concentrations for 20 hours. The fluorescent 1,1′-dioctadecyl-3,3,3′,3′-tetramethylindocarbocyanin perchlorate (DiI-LDL) (Biomedical Technologies, Stoughton, Mass.) at a concentration of 2 μg/mL was added to cells at the end of treatment. After 4 hours, the medium was removed, cells were washed with cold PBS, and were examined immediately under a fluorescent microscope (Nikon) at 200× amplification. The fluorescent intensity in compound-treated cells was compared to that in untreated control cells. […] In these experiments berberine chloride was used for comparison.

[4] = test system: Wister male rats under a high fat and high cholesterol diet; assay: Lipid lowering and body weight effects of (14R,13S)-CRDL hydrochloride salt in Wister rats; type: in vivo
Procedure: Male Wister rats were used as another animal model to examine the in vivo effects of (14R,13S)-CRDL in plasma lipid levels.
In one experiment, 18 Wister male rats under a high fat and high cholesterol diet were divided into 2 groups. One group was given (14R,13S)-CRDL hydrochloride salt orally at a daily dose of 75 mg/kg by an orogastric tube for 4 weeks, and the control group received daily treatment of equal amount of vehicle (0.1 M sodium phosphate, pH 3.5). Serum lipid levels were measured weekly.
At the end of treatment, Rats were sacrificed and blood and sera were collected to measure several critical parameters for liver function and kidney function. […] Kidney function and blood glucose level were not changed by the treatment (FIG. 11E).
The food intake and body weight gains were measured every week during the 4-week treatment period. […] In the first week, the amount of food consumed was decreased in CRDL-treated group. […] The ability of CRDL to activate AMPK signaling pathway to increase energy expenditure and to reduce fat accumulation likely contributes to this weight reducing effect.

[5] = HC diet, compared to untreated group
[6] = (14R,13S)-CRDL hydrochloride salt orally 75 mg/kg daily, 4 weeks
[7] = end of 4-week treatment, 75 mg/kg daily orally
[8] = end of 4-week treatment, 75 mg/kg daily orally, vs control group

- blood level of glucose ([1]; HC diet): not changed
- blood level of urea nitrogen (BUN) ([1]; HC diet): not changed
- reduction of level of creatinine (CREA) ([1]; HC diet, p<0.001): 20%
Compound: COc1cc2c(cc1OC)[C@H]1[C@@H](C)c3ccc(OC)c(OC)c3CN1CC2 [CRDL, 14R,13S-(+)-corydaline]
- adverse effects during the drug treatment [1]: no adverse effects were observed
- lowering of serum level of ALT ([1]; HC diet, compared to control): 60%
- lowering of serum level of AST ([1]; HC diet, compared to control): 30%
- reduction of plasma TC [1, 5]: 41.9%
- reduction of plasma TG [1, 5]: 46.0%
- reduction of plasma non-HDL-c [1, 5]: 50%
- LDLR mRNA expression [2]: potent and dose-dependent effects
- Activity on DiI-LDL uptake [3]: ++
- body weight ([4]; 4 weeks, 75 mg/kg daily orally, high fat and high cholesterol diet): maintained constant
- LDL-c level, % of control [4, 6]: 25.6%
- LDL-c level, % of day 0 [4, 6]: 22.4%
- TC, % compared to the control group [4, 6]: 33.8%
- TC, % of the pretreatment level [4, 6]: 33.0%
- TG level, % of the control [4, 6]: 29%
- TG level, % of the pretreatment level (day 0) [4, 6]: 27%
- adverse effects during the entire treatment [4, 6]: No any adverse effects were observed
- blood glucose level [4, 7]: not changed
- kidney function (BUN, CREA) [4, 7]: not changed
- serum level of ALT [4, 8]: statistically lower
- serum level of AST [4, 8]: statistically lower

— patent publication US8815900B2, “Compounds and compositions for reducing lipid levels” (CVI Pharmaceuticals Limited, priority 2007, dated 2014)
